Type in all cases: in vivo
Holding throughout (details): 12 days after treatment

Test [1] relates to Galium aparine (GALAP). Kind of test: Example 5 glasshouse trial post-emergence in wheat, (I) and isoxaflutole. How it is done:
(§1) A glasshouse trial was carried out post-emergence in wheat using a tank mixture comprising a phenoxypicolinamide derivative of formula I (at 1, 4 and 16 g/ha) and isoxaflutole (at 8, 16 and 32 g/ha) which was sprayed on the following weed species:
(§2) Alopecurus myosuroides (ALOMY) and Galium aparine (GALAP).

In test [2] the test system is Alopecurus myosuroides (ALOMY). The description is as above. Here is the method: as §1, §2
The subject of test [3] is Echinochloa crus-galli (ECHCG). The experiment in a line: Example 4 glasshouse trial post-emergence in wheat, (I) and bromoxynil. Here is the method: (§3) A glasshouse trial was carried out post-emergence in wheat using a tank mixture comprising a phenoxypicolinamide derivative of formula I (at 1, 4 and 16 g/ha) and bromoxynil (at 12.5, 50 and 200 g/ha) which was sprayed on the following weed species:
(§4) Setaria viridis (SETVI), Avena fatua (AVEFA), Echinochloa crus-galli (ECHCG) and Galium aparine (GALAP).

In test [4] the test system is Galium aparine (GALAP). The test is described as above. How it is done: as §3, §4
Test [5] relates to Setaria viridis (SETVI). Described as above. How it is done:
as §3, §4

The test system of test [6] is Avena fatua (AVEFA). The test is described as above. How it is done: as §3, §4
Test [7] deals with Echinochloa crus-galli (ECHCG). Kind of test: Example 3 glasshouse trial post-emergence in wheat, (I) and isoproturon. Here is the method: (§5) A glasshouse trial was carried out post-emergence in wheat using a tank mixture comprising a phenoxypicolinamide derivative of formula I (at 1, 4 and 16 g/ha) and isoproturon (at 125, 250 and 500 g/ha) which was sprayed on the following weed species:
(§6) Alopecurus myosuroides (ALOMY), Setaria viridis (SETVI), Avena fatua (AVEFA), Echinochloa crus-galli (ECHCG) and Galium aparine (GALAP).

The subject of test [8] is Galium aparine (GALAP). The description is as above. How it is done:
as §5, §6

The subject of test [9] is Alopecurus myosuroides (ALOMY). Described as above. Here is the method: as §5, §6
For test [10], the system named is Setaria viridis (SETVI). The test is described as above. How it is done: as §5, §6
Test [11] deals with Avena fatua (AVEFA). The description is as above. Here is the method: as §5, §6

As for `CS(=O)(=O)c1cc(C(F)(F)F)ccc1C(=O)c1cnoc1C1CC1` [Compound (IV), 5-cyclopropyl-4-(2-methylsulphonyl-4-trifluoromethyl)-benzoylisoxazole], the “% Weed Control GALAP” value in test [1] (8 g ai/ha) was found to be 60%; in test [1] (16 g ai/ha), 60%; in test [1] (32 g ai/ha), 80%. The entries for the “% Weed Control ALOMY” value in test [2] (8 g ai/ha), in test [2] (16 g ai/ha) and in test [2] (32 g ai/ha) were 10%, 20% and 40%, respectively.
As to `N#Cc1cc(Br)c(O)c(Br)c1` [Compound (III), 3,5-dibromo-4-hydroxybenzonitrile], the “% Weed Control ECHCG” value stood at 0% in [3] (12.5 g ai/ha), 0% in [3] (50 g ai/ha) and 20% in test [3] (200 g ai/ha). For the same molecule, the “% Weed Control GALAP” value came to 0% in test [4] (12.5 g ai/ha), 80% in test [4] (50 g ai/ha) and 100% in test [4] (200 g ai/ha). Also, the “% Weed Control SETVI” value is 0% in test [5] (12.5 g ai/ha), 20% in test [5] (50 g ai/ha) and 20% in [5] (200 g ai/ha). Besides, the “% Weed Control AVEFA” value turned out to be 0% in test [6] (12.5 g ai/ha), 0% in test [6] (50 g ai/ha) and 10% in test [6] (200 g ai/ha).
Turning to `CC(C)c1ccc(NC(=O)N(C)C)cc1` [Compound (II), 3-(4-isopropylphenyl)-1,1-dimethylurea], the figures for the “% Weed Control ECHCG” value in [7] (125 g ai/ha), in [7] (250 g ai/ha) and in test [7] (500 g ai/ha) were 10%, 70% and 70%, respectively. Further, the “% Weed Control GALAP” value in test [8] (125 g ai/ha), in test [8] (250 g ai/ha) and in test [8] (500 g ai/ha) was 0% in each case. Moreover, the “% Weed Control ALOMY” value is 0% in test [9] (125 g ai/ha), 0% in test [9] (250 g ai/ha) and 20% in test [9] (500 g ai/ha). The “% Weed Control SETVI” value worked out at 50% in test [10] (125 g ai/ha), 70% in test [10] (250 g ai/ha) and 100% in test [10] (500 g ai/ha). The figures for the “% Weed Control AVEFA” value in test [11] (125 g ai/ha), in test [11] (250 g ai/ha) and in test [11] (500 g ai/ha) were 0%, 30% and 30%, respectively.
For `O=C(Nc1ccc(F)cc1)c1cccc(Oc2cccc(C(F)(F)F)c2)n1` [(I), picolinafen], the “% Weed Control GALAP” value in test [1] (1 g ai/ha) turned out to be 10%; in [1] (4 g ai/ha), 40%; in test [1] (16 g ai/ha), 90%; in test [4] (1 g ai/ha), 10%; in [4] (4 g ai/ha), 40%; in test [4] (16 g ai/ha), 90%. Further, the figures for the “% Weed Control GALAP” value in test [8] (1 g ai/ha), in test [8] (4 g ai/ha) and in [8] (16 g ai/ha) were 10%, 40% and 90%, respectively. Further, the “% Weed Control ALOMY” value in test [2] (1 g ai/ha) worked out at 10%; in [2] (4 g ai/ha) it was 10%; in [2] (16 g ai/ha) it was 30%; in [9] (1 g ai/ha), 10%; in [9] (4 g ai/ha), 10%; in test [9] (16 g ai/ha), 30%. For the same molecule, the “% Weed Control ECHCG” value in test [3] (1 g ai/ha) was 10%; in [3] (4 g ai/ha), 10%; in [3] (16 g ai/ha), 40%; in test [7] (1 g ai/ha), 10%; in test [7] (4 g ai/ha), 10%; in test [7] (16 g ai/ha), 40%. Moreover, the “% Weed Control SETVI” value is 10% in test [5] (1 g ai/ha); 30% in test [5] (4 g ai/ha); 70% in test [5] (16 g ai/ha); 10% in test [10] (1 g ai/ha); 30% in test [10] (4 g ai/ha); 70% in [10] (16 g ai/ha). Moreover, the “% Weed Control AVEFA” value in [6] (1 g ai/ha) came to 10%; in test [6] (4 g ai/ha), 20%; in test [6] (16 g ai/ha) it was 40%; in test [11] (1 g ai/ha), 10%; in test [11] (4 g ai/ha) it was 20%; in test [11] (16 g ai/ha) it was 40%.

The values are drawn from patent publication US6660692B1, “Herbicidal compositions comprising picolinafen” (Aventis CropScience S.A., priority 1999, dated 2003).
